The format of the series is physicochemical. The source says: Hydrophilic materials for use in forming the interior wall which have solubilities sensitive to osmotic pressure or to ionic strength can be screened experimentally prior to formulating them within the interior wall. This procedure involves forming an aqueous solution of the candidate hydrophilic materials using distilled water as the solvent. Then, the resulting solution is cast onto a smooth inert surface, such as a glass plate, and allowed to dry to a film. The film is then removed and cut into sections of known area, thickness, and weight. The resulting film samples are then placed in a series of reference solutions of various osmotic pressures or ionic strengths with mild stirring. The time required for the film to dissolve, t, is then measured as a function of osmotic pressure or ionic strength. Then, given the known values of initial film thickness, hi, the dissolution rate of the film, dh/dt, can be calculated according to Equation 5. […]
The solubility of various hydrophilic materials to osmotic pressure was evaluated. […] Thicknesses of the discs were measured with a table micrometer. […] The time to dissolution was then monitored for each sample. Dissolution rate was calculated according to Equation 5 and plotted as a function of osmotic pressure for each molecular weight. […]

In the case of hydroxypropylcellulose [Klucel EF], the “osmotic pressure at which the film is insoluble” value is reported as “above 30 atmospheres” and the “osmotic pressure at which the film is soluble” value is reported as 0-30 atmospheres.

For the origin of these results see patent US8524277B2, “Extended release dosage form” (Alza Corporation, priority 1998, dated 2013).
